Publication PMC11243693, “Synthesis and Biological Evaluation of New Compounds with Nitroimidazole Moiety” (Molecules, 2024)
Converted amounts (≈) assume the structure as drawn.

What was measured:
[1] = system: Staphylococcus epidermidis ATCC 12228; assay: Broth microdilution, S. epidermidis ATCC 12228; assay type: cell-based; conditions: Se 12228; for MBC/MIC Ratio: <4 bactericidal, ≥4 bacteriostatic
Protocol: (§1) The antibacterial activity of the obtained thiosemicarbazides and hydrazide–hydrazones was determined by evaluating their ability to inhibit microbial growth in vitro using the broth microdilution method, according to the guidelines of the European Committee on Antimicrobial Susceptibility Testing (EUCAST). The method involved the preparation of microbial suspensions with a standardized density of 0.5 on the McFarland scale (equivalent to 1.5 × 10^8 colony-forming units/mL for bacteria and […] for fungi). A solution of the test substances was then prepared (initial concentration 1000 µg/mL, diluted in sterile Mueller-Hinton broth for bacteria or Mueller-Hinton with 2% glucose for fungi). The test was carried out in 96-well polystyrene flat-bottom plates (Medlab, Poland) with 100 µL of appropriate sterile microbiological medium in each well. The first wells were filled with 200 µL of the test substance, diluted to the initial concentration, and then double-decreasing dilutions were made under aseptic conditions using an automatic pipette. The final step was the addition of a 10-fold diluted microbial suspension of 2 µL. At the same time, the following controls were included: (a) medium control (100 µL of sterile medium without microorganisms added), (b) microbial viability control, (c) test substance control (dilutions without added micro-organisms), (d) positive control of the drug used in the clinic. The plates thus prepared were incubated for 18 ± 2 h at 35 ± 2 °C under conditions optimal for the growth of the test microorganisms. After incubation, the spectrophotometric absorbance at 570 nm in each well of the plate was read. The aim of this part of the study was to determine two parameters: the minimum inhibitory concentration (MIC) and the minimum bactericidal or fungicidal concentration (MBC/MFC) of the test compound. […] The MBC value was determined by adding 5 µL of the contents of each well of the plate to solid sterile MHA or MHA + 2%glc medium for bacteria and fungi, respectively. The area on the plate where 99.9% inhibition of microbial growth was observed indicated the lethal concentration. In addition, the quotient MBC(MFC)/MIC could be determined to assess the nature of the activity of the test substance. If MBC(MFC)/MIC was <4, the test substance was bactericidal/fungicidal, whereas if MBC(MFC)/MIC was ≥4, it was bacteriostatic/fungistatic. Amoxicillin (Glentham Life Sciences, USA) and nystatin (Glentham Life Sciences, USA) were used as the controls for this assay.
(§2) The test was performed either on bacteria, comprising: Gram-positive (Staphylococcus aureus ATCC 25923, Staphylococcus aureus ATCC 6538, Staphylococcus aureus ATCC 43300 methicillin-resistant MRSA, Staphylococcus epidermidis ATCC 12228, Micrococcus luteus ATCC 10240, Bacillus subtilis ATCC 6633, Bacillus cereus ATCC 10876) and Gram-negative (Escherichia coli ATCC 25922, Pseudomonas aeruginosa ATCC 27853, Proteus mirabilis ATCC 12453, Klebsiella pneumoniae ATCC 13883) or yeast (Candida parapsilosis ATCC 22019, Candida glabrata ATCC 90030, Candida krusei ATCC 14243, Candida glabrata ATCC 15126, Candida tropicalis ATCC 1369, Candida auris CDC B11903, Candida lusitaniae ATCC 3449) reference strains from the American Type Culture Collection (ATCC) or the Centers for Disease Control and Prevention (CDC).

[2] = system: Bacillus cereus ATCC 10876; assay: Broth microdilution, B. cereus ATCC 10876; assay type: cell-based; conditions: Bc 10876
Protocol: as §1, §2

[3] = system: Staphylococcus aureus ATCC 43300 methicillin-resistant MRSA; assay: Broth microdilution, S. aureus ATCC 43300 MRSA; assay type: cell-based; conditions: Sa 43300 MRSA
Protocol: as §1, §2

[4] = system: Candida glabrata ATCC 15126; assay: Broth microdilution, C. glabrata ATCC 15126; assay type: cell-based; conditions: Cg 15126
Protocol: as §1, §2

[5] = system: Bacillus subtilis ATCC 6633; assay: Broth microdilution, B. subtilis ATCC 6633; assay type: cell-based; conditions: Bs 6633; for MBC/MIC Ratio: <4 bactericidal, ≥4 bacteriostatic
Protocol: as §1, §2

[6] = system: Candida krusei ATCC 14243; assay: Broth microdilution, C. krusei ATCC 14243; assay type: cell-based; conditions: Ck 14243
Protocol: as §1, §2

[7] = system: Candida lusitaniae ATCC 3449; assay: Broth microdilution, C. lusitaniae ATCC 3449; assay type: cell-based; conditions: Cl 3449
Protocol: as §1, §2

[8] = system: Candida tropicalis ATCC 1369; assay: Broth microdilution, C. tropicalis ATCC 1369; assay type: cell-based; conditions: Ct 1369; for MFC/MIC Ratio: <4 fungicidal, ≥4 fungistatic
Protocol: as §1, §2

[9] = system: Staphylococcus aureus ATCC 25923; assay: Broth microdilution, S. aureus ATCC 25923; assay type: cell-based; conditions: Sa 25923
Protocol: as §1, §2

Candida spp. = assay: Broth microdilution, Candida spp.; assay type: cell-based; conditions: for MBC (range, C. parapsilosis ATCC 22019 and C. tropicalis ATCC 1369) / MIC (range, C. parapsilosis ATCC 22019 and C. tropicalis ATCC 1369): range over both strains and the listed compounds
Protocol: as §1, §2

[10] = system: Candida glabrata ATCC 90030; assay: Broth microdilution, C. glabrata ATCC 90030; assay type: cell-based; conditions: Cg 90030
Protocol: as §1, §2

Candida auris CDC B11903 = assay: Broth microdilution, C. auris CDC B11903; assay type: cell-based; conditions: Ca B11903
Protocol: as §1, §2

[11] = system: Micrococcus luteus ATCC 10240; assay: Broth microdilution, M. luteus ATCC 10240; assay type: cell-based; conditions: Ml 10240; for MBC/MIC Ratio: <4 bactericidal, ≥4 bacteriostatic
Protocol: as §1, §2

[12] = system: Staphylococcus aureus ATCC 6538; assay: Broth microdilution, S. aureus ATCC 6538; assay type: cell-based; conditions: Sa 6538
Protocol: as §1, §2

[13] = system: Candida parapsilosis ATCC 22019; assay: Broth microdilution, C. parapsilosis ATCC 22019; assay type: cell-based; conditions: Cp 22019
Protocol: as §1, §2

Compound | MBC [1] [µg/mL] | MIC [1] [µg/mL] | MBC [2] [µg/mL] | MIC [2] [µg/mL] | MBC [3] [µg/mL] | MIC [3] [µg/mL] | MIC [4] [µg/mL] | MBC [5] [µg/mL] | MIC [5] [µg/mL] | MBC/MIC Ratio [5] | MIC [6] [µg/mL] | MIC [7] [µg/mL] | MFC [8] [µg/mL] | MIC [8] [µg/mL] | MFC/MIC Ratio [8] | MBC [9] [µg/mL] | MIC [9] [µg/mL] | MBC (range, C. parapsilosis ATCC 22019 and C. tropicalis ATCC 1369) (Candida spp.) [µg/mL] | MIC (range, C. parapsilosis ATCC 22019 and C. tropicalis ATCC 1369) (Candida spp.) [µg/mL] | melting point [°C] | also measured
Cn1cc([N+](=O)[O-])nc1C(=O)NNC(=S)Nc1ccccc1Cl [Compound 3] | 500 (≈ 1410 µM) | 250 (≈ 705 µM) | >1000 | 1000 (≈ 2820 µM) | >1000 | 1000 (≈ 2820 µM) | >1000 | 125 (≈ 352 µM) | 125 (≈ 352 µM) | 1 | >1000 | >1000 | 500 (≈ 1410 µM) | 250 (≈ 705 µM) | 2 | >1000 | 250 (≈ 705 µM) | 500 to 1000 | 62.5 to 1000 |  | MBC/MIC Ratio [1]: 2; MIC [10]: >1000 µg/mL; MIC (Candida auris CDC B11903): >1000 µg/mL; MBC [11]: 250 µg/mL (≈ 705 µM); MIC [11]: 250 µg/mL (≈ 705 µM); MBC/MIC Ratio [11]: 1; MBC [12]: >1000 µg/mL; MIC [12]: 500 µg/mL (≈ 1410 µM); MFC [13]: >1000 µg/mL; MIC [13]: 250 µg/mL (≈ 705 µM)
Cn1cc([N+](=O)[O-])nc1C(=O)NNC(=S)Nc1cccc(Cl)c1 [Compound 4] | 125 (≈ 352 µM) | 125 (≈ 352 µM) | >1000 | 250 (≈ 705 µM) | >1000 | 500 (≈ 1410 µM) | >1000 | 62.5 (≈ 176 µM) | 62.5 (≈ 176 µM) | 1 | >1000 | >1000 | 500 (≈ 1410 µM) | 250 (≈ 705 µM) | 2 | >1000 | 62.5 (≈ 176 µM) | 500 to 1000 | 62.5 to 1000 |  | MBC/MIC Ratio [1]: 1; MIC [10]: >1000 µg/mL; MIC (Candida auris CDC B11903): >1000 µg/mL; MBC [11]: 500 µg/mL (≈ 1410 µM); MIC [11]: 125 µg/mL (≈ 352 µM); MBC/MIC Ratio [11]: 4; MBC [12]: >1000 µg/mL; MIC [12]: 250 µg/mL (≈ 705 µM); MFC [13]: >1000 µg/mL; MIC [13]: 62.5 µg/mL (≈ 176 µM)
COc1ccccc1NC(=S)NNC(=O)c1nc([N+](=O)[O-])cn1C [Compound 9] | >1000 | 500 (≈ 1430 µM) | >1000 | 1000 (≈ 2850 µM) | >1000 | 1000 (≈ 2850 µM) | >1000 | 500 (≈ 1430 µM) | 500 (≈ 1430 µM) | 1 | >1000 | >1000 | 1000 (≈ 2850 µM) | 500 (≈ 1430 µM) | 2 | >1000 | 500 (≈ 1430 µM) | 500 to 1000 | 62.5 to 1000 |  | MIC [10]: >1000 µg/mL; MIC (Candida auris CDC B11903): >1000 µg/mL; MBC [11]: >1000 µg/mL; MIC [11]: 500 µg/mL (≈ 1430 µM); MBC [12]: >1000 µg/mL; MIC [12]: 1000 µg/mL (≈ 2850 µM); MFC [13]: 1000 µg/mL (≈ 2850 µM); MIC [13]: 500 µg/mL (≈ 1430 µM); MFC/MIC Ratio ([13]; <4 fungicidal, ≥4 fungistatic): 2
COc1cccc(NC(=S)NNC(=O)c2nc([N+](=O)[O-])cn2C)c1 [Compound 10] | 500 (≈ 1430 µM) | 500 (≈ 1430 µM) | 1000 (≈ 2850 µM) | 500 (≈ 1430 µM) | >1000 | 500 (≈ 1430 µM) | >1000 | 500 (≈ 1430 µM) | 125 (≈ 357 µM) | 4 | >1000 | >1000 | 1000 (≈ 2850 µM) | 250 (≈ 714 µM) | 4 | >1000 | 250 (≈ 714 µM) | 500 to 1000 | 62.5 to 1000 |  | MBC/MIC Ratio [1]: 1; MBC/MIC Ratio ([2]; <4 bactericidal, ≥4 bacteriostatic): 2; antifungal activity towards tested Candida strains (Candida spp.; in words): fungistatic activity; MIC [10]: >1000 µg/mL; MIC (Candida auris CDC B11903): >1000 µg/mL; MBC [11]: 250 µg/mL (≈ 714 µM); MIC [11]: 250 µg/mL (≈ 714 µM); MBC/MIC Ratio [11]: 1; MBC [12]: >1000 µg/mL; MIC [12]: 1000 µg/mL (≈ 2850 µM); MFC [13]: >1000 µg/mL; MIC [13]: 250 µg/mL (≈ 714 µM)
Cn1cc([N+](=O)[O-])nc1C(=O)NN=Cc1cccc(Cl)c1 [Compound 21, N’-[(3-chlorophenyl)methylidene]-1-methyl-4-nitro-1H-imidazole-2-carbohydrazide] |  |  |  |  |  |  |  |  |  |  |  |  |  |  |  |  |  |  |  | 276 to 278 | 
Cn1cc([N+](=O)[O-])nc1C(=O)NN=Cc1ccccc1F [Compound 22, N’-[(2-fluorophenyl)methylidene]-1-methyl-4-nitro-1H-imidazole-2-carbohydrazide] |  |  |  |  |  |  |  |  |  |  |  |  |  |  |  |  |  |  |  | 214 to 217 | 
COc1ccccc1C=NNC(=O)c1nc([N+](=O)[O-])cn1C [Compound 23, N’-[(2-methoxyphenyl)methylidene]-1-methyl-4-nitro-1H-imidazole-2-carbohydrazide] |  |  |  |  |  |  |  |  |  |  |  |  |  |  |  |  |  |  |  | 205 to 208 | 
COc1cccc(C=NNC(=O)c2nc([N+](=O)[O-])cn2C)c1 [Compound 24, N’-[(3-methoxyphenyl)methylidene]-1-methyl-4-nitro-1H-imidazole-2-carbohydrazide] |  |  |  |  |  |  |  |  |  |  |  |  |  |  |  |  |  |  |  | 208 to 210 | 
COc1ccc(C=NNC(=O)c2nc([N+](=O)[O-])cn2C)cc1 [Compound 25, N’-[(4-methoxyphenyl)methylidene]-1-methyl-4-nitro-1H-imidazole-2-carbohydrazide] |  |  |  |  |  |  |  |  |  |  |  |  |  |  |  |  |  |  |  | 224 to 226 | 
Cn1cc([N+](=O)[O-])nc1C(=O)NN=Cc1ccc(C(F)(F)F)cc1 [Compound 26, 1-methyl-4-nitro-N’-[(4-trifluoromethylphenyl)methylidene]-1H-imidazole-2-carbohydrazide] |  |  |  |  |  |  |  |  |  |  |  |  |  |  |  |  |  |  |  | 208 to 210 | 
Cn1cc([N+](=O)[O-])nc1C(=O)NN=Cc1cccc(O)c1 [Compound 27, N’-[(3-hydroxyphenyl)methylidene]-1-methyl-4-nitro-1H-imidazole-2-carbohydrazide] |  |  |  |  |  |  |  |  |  |  |  |  |  |  |  |  |  |  |  | 208 to 210 | 
Cn1cc([N+](=O)[O-])nc1C(=O)NN=Cc1cccc(Cl)c1F [Compound 28, N’-[(3-chloro-2-fluorophenyl)methylidene]-1-methyl-4-nitro-1H-imidazole-2-carbohydrazide] |  |  |  |  |  |  |  |  |  |  |  |  |  |  |  |  |  |  |  | 252 to 255 | 
COc1cc(Cl)ccc1C=NNC(=O)c1nc([N+](=O)[O-])cn1C [Compound 29, N’-[(4-chloro-2-methoxyphenyl)methylidene]-1-methyl-4-nitro-1H-imidazole-2-carbohydrazide] |  |  |  |  |  |  |  |  |  |  |  |  |  |  |  |  |  |  |  | 234 to 237 | 
